According to patent publication US8501940B2, “Tetrahydrocinnoline derivatives” (Hoffmann-La Roche Inc., priority 2008, dated 2013):

System: men
Experiment: not given
Conditions: treatment with carbenoxolone in men; cited from earlier work

Compound	insulin sensitivity
CC1(C)[C@@H](OC(=O)CCC(=O)O)CC[C@]2(C)[C@H]3C(=O)C=C4[C@@H]5C[C@@](C)(C(=O)O)CC[C@]5(C)CC[C@@]4(C)[C@]3(C)CC[C@@H]12 [carbenoxolone]	increase in insulin sensitivity

Target: T1, human 11beta-HSD1 (Homo sapiens, UniProt P28845)
T1 construct: made in house; host or cells: HEK293 cells (ATCC CRL-1573), transient transfection with a pcDNA3 construct; microsomal fraction used
Experiment: Microsome assay (cortisone to cortisol conversion, ELISA detection)
Assay type: biochemical
Conditions: microsomes from HEK293 cells transiently expressing human 11beta-HSD1; Cortisone 50-200 nM, NADPH 1 mM; 60 min at 37° C.; cortisol by ELISA; read-out: h 11-beta-HSD 1 IC50
Method: The cDNA encoding the human 11beta-HSD1 protein was cloned into the expression vector pcDNA3 (Stratagene). This construct (for details see Alex Odermatt et al.; J Biol Chem., 1999, Vol. 274, Issue 40, 28762-28770) was used to transiently express the protein in HEK293 cells (ATCC number: CRL-1573, described in Graham, F. L., Smiley, J., Russell, W. C., Nairn, R.; (1977)) using lipofectamine. 48 h after transfection cells were washed twice with ice-cold PBS (Phosphate buffered Saline). To 1 volume of cell suspension in PBS 2 volumes of ice-cold lysis buffer (50 mM Tris; pH7.5; 1 mM EDTA; 100 mM NaCl) were added. The cells were lysed by Potter-homogenization (20 strokes). The resulting homogenate was sonicated with a tip sonicator (10% output; 2×30 sec.) and cleared by a low speed centrifugation (10 min×9000 g; 4° C.). The microsomal fraction was collected by a high speed centrifugation (60 min×110,000 g). The resulting pellet was resuspended in storage buffer (20 mM Tris pH 7.5; 1 mM EDTA; 10% Glycerol) and the centrifugation was repeated. The resulting pellet containing the microsomal fraction was again taken up into storage buffer and aliquots were kept frozen in liquid Nitrogen until use.
Microsomes isolated from HEK293 cells transiently expressing human 11beta-HSD1 (for details see above) were incubated in assay buffer (100 mM NaCl; 1 mM EDTA; 1 mM EGTA; 1 mM MgCl; 250 mM Sucrose; 20 mM Tris pH 7.4; Cortisone 50-200 nM and NADPH 1 mM) together with different concentrations of test substances. After 60 min. of incubation at 37° C. the assay was stopped by heating to 80° C. (5 min.) and by addition of the inhibitor Carbenoxolone (1 uM). The amount of Cortisol produced in this assay was determined using a commercially available, ELISA-based Cortisol-detection kit (Distributed by Assay Design, Inc.). Inhibitors were characterized by there IC50 values, e.g. the concentration at which the production of cortisol was 50% reduced.

T1 sequence (P28845 whole entry): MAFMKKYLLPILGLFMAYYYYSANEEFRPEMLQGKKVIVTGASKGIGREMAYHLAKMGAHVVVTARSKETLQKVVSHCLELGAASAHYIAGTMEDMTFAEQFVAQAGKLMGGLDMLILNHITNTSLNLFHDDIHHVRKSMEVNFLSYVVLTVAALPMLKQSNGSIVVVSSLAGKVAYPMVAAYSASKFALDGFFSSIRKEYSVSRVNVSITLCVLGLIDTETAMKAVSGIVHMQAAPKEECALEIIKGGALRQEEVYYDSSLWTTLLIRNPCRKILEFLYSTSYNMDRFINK

Compound	IC50 [pM]
Fc1ccc(-c2cc3c(nn2)C2CCC3C23CCCC3)c(Cl)c1 (stereo not drawn) [Example 28, (5′RS,8′SR)-3′-(2-chloro-4-fluorophenyl)-5′,6′,7′,8′-tetrahydrospiro[cyclopentane-1,9′-[1′,2′]diaza[5′,8′]methanocinnoline]]	1
Cc1ccccc1-c1cc2c(nn1)C1CCC2C12CCCC2 (stereo not drawn) [Example 29, (5′RS,8′SR)-3′-(2-methylphenyl)-5′,6′,7′,8′-tetrahydrospiro[cyclopentane-1,9′-[1′,2′]diaza[5′,8′]methanocinnoline]]	1
Cc1c(-c2cc3c(nn2)C2CCC3C23CCCC3)cnn1-c1ccccc1 (stereo not drawn) [Example 30, (5′RS,8′SR)-3′-(5-methyl-1-phenyl-1H-pyrazol-4-yl)-5′,6′,7′,8′-tetrahydrospiro[cyclopentane-1,9′-[1′,2′]diaza[5′,8′]methanocinnoline]]	62
Cc1c(-c2cc3c(nn2)C2CCC3C23CCCC3)cnn1C(C)(C)C (stereo not drawn) [Example 31, (5′RS,8′SR)-3′-(1-tert-butyl-5-methyl-1H-pyrazol-4-yl)-5′,6′,7′,8′-tetrahydrospiro[cyclopentane-1,9′-[1′,2′]diaza[5′,8′]methanocinnoline]]	13
FC(F)(F)c1ccc(Cl)cc1-c1cc2c(nn1)C1CCC2C12CCCC2 (stereo not drawn) [Example 32, (5′RS,8′SR)-3′-[5-chloro-2-(trifluoromethyl)phenyl]-5′,6′,7′,8′-tetrahydrospiro[cyclopentane-1,9′-[1′,2′]diaza[5′,8′]methanocinnoline]]	6
(5′RS,8′SR)-3′-(2-methylphenyl)-5′,6′,7′,8′-tetrahydrospiro[cyclopropane-1,9′-[1′,2′]diaza[5′,8′]methanocinnoline] [Example 26]	5
